Laboratory results as given in patent US20260355169A1, “METHODS OF TREATING CANCERS USING ISOQUINOLINE OR 6-AZA-QUINOLINE DERIVATIVES” (Black Diamond Therapeutics, Inc., priority 2022, published 2026).

system: BaF3 BRAF-KIAA1549 fusion cells; assay: BaF3 BRAF-KIAA1549 fusion cell proliferation assay; type: cell-based; settings: Mus musculus, BaF3, 96 h, read-out: IC50, inhibition of cell growth, BaF3-BRAF:KIAA1549 Fusion
Protocol: Retroviral Production: The BRAF-KIAA1549 fusion mutant was subcloned into pMXs-IRES-Blasticidin (RTV-016, Cell Biolabs, San Diego, CA). […]. Briefly, HEK 293T cells were plated in Poly-D-lysine coated 6-well plate (2.5×10^5 cells per well) and incubated overnight. The next day, retroviral plasmids (1 μg of BRAF-KIAA fusion mutant, 0.32 μg of pCMV-Gag-Pol and 0.165 μg pCMV-VSV-G) were mixed in 300 μL of Optimem (31985, Life Technologies). The mixture was incubated at room temperature for 5 minutes and then added to Optimem containing transfection reagent Lipofectamine (11668, Invitrogen) and incubated for 20 minutes. The mixture was then added dropwise to HEK 293T cells. The next day the medium was replaced with fresh culture medium and retrovirus was harvested at 24 hours.
Generation of BRAF-KIAA1549 fusion stable cell line: BaF3 cells were plated in V-bottom 96 well plate (COSTAR #3894) in 80 μL of RPMI/10% FBS and 0.01 ng/mL mouse IL-3, supplemented with 8 μg/mL polybrene (4×10^4 cells/well). Cells were transduced with 20 μL of BRAF-KIAA1549 fusion viral supernatant by centrifuging for 30 minutes at 1000 rpm. Cells were placed in a 37 °C incubator overnight. Next day 100 μL of RPMI/10% FBS and 0.01 ng/mL mouse IL-3 was added. After 24 hours, 100 μL of cells were transferred to a 24 well plate containing 900 μL of RPMI/10% FBS and 15 μg/mL Blasticidin. Contents of the 24 well plate were sampled for cell viability via CellTiterGlo (Promega) over a 2-week period.
Assay for cell proliferation: BaF3 BRAF-KIAA1549 fusion cells were resuspended at 1.5×10^5 c/mL in RPMI containing 10% Heat Inactivated FBS, 1% L-glutamine and dispensed in duplicate ([…]) into 384 well plates. To determine the effect of compound on cell proliferation, BaF3 BRAF-KIAA1549 fusion cells were incubated for 96 hours in the presence of vehicle control (DMSO) or compound at varying concentrations. Inhibition of cell growth was determined by luminescent quantification (Envision by Perkin Elmer) of intracellular ATP content using CellTiterGlo (Promega), according to the protocol provided by the manufacturer. To determine the IC50 values, the vehicle-treated cells were normalized as viable cells and analyzed using the CDD Vault, Collaborative Drug Discovery, Burlingame, CA (the Levenberg-Marquardt algorithm; Levenberg, K, […]; Marquardt, D., 1963).
Table A assigns each compound a code for potency in the BaF3 BRAF-KIAA1549 fusion cell proliferation assay: A, B, C, or D. According to the code, A represents an IC50 value<20 nM; B represents an IC50 value≥20 nM and <100 nM; C represents an IC50 value≥100 nM and <500 nM; and D represents an IC50 value≥500 nM.

SMILES	IC50
CNc1cc2ncc(-c3cc(NC(=O)c4cncc(C(F)(F)F)c4)cnc3C)cc2cn1 [compound 21]	20 to 100 nM
CNc1cc2ncc(-c3cc(NC(=O)c4cc(C(C)(F)F)ccn4)ccc3C)cc2cn1 [compound 12]	20 to 100 nM
CNc1cc2ncc(-c3cc(NC(=O)c4cc(C(C)(C)C#N)ccn4)cc(F)c3Cl)cc2cn1 [compound 44]	20 to 100 nM
Cc1ccc(NC(=O)c2ccnc(C3(F)CC3)c2)cc1-c1cnc2cc(N)ncc2c1 [compound 154]	< 20 nM
CNc1cc2ncc(-c3cc(NC(=O)c4noc5c4CN(C(C)C)CC5)cnc3C)cc2cn1 [compound 254]	100 to 500 nM
CNc1cc2ncc(-c3cc(NC(=O)c4cnc5n4CC(C)CC5)cnc3C)cc2cn1 (centres unmarked) [compound 225]	20 to 100 nM
CNc1cc2ncc(-c3cc(NC(=O)c4cc(C(O)C(C)C)ccn4)cnc3C)cc2cn1 (centres unmarked) [compound 202]	20 to 100 nM
CNc1cc2ncc(-c3cc(NC(=O)c4cc(C5(C#N)CC5)ccn4)cnc3C)cc2cn1 [compound 32]	< 20 nM
CNc1cc2ncc(-c3cc(NC(=O)c4cc(C(C)(C)C#N)ccn4)c(Cl)cc3C)cc2cn1 [compound 50]	100 to 500 nM
CNc1cc2ncc(-c3cc(NC(=O)N(C)c4ccnc(C(F)F)c4)cnc3C)cc2cn1 [compound 190]	100 to 500 nM
CNc1cc2ncc(-c3cc(NC(=O)c4ccnc(C(C)(C)C#N)c4)c(F)cc3C)cc2cn1 [compound 217]	20 to 100 nM
CNc1cc2ncc(-c3cc(NC(=O)c4csc5c4CCC(C)C5)cnc3C)cc2cn1 (centres unmarked) [compound 235]	20 to 100 nM
CNc1cc2ncc(-c3cc(NC(=O)[C@@H](C)n4cnc(C(F)(F)F)n4)ccc3C)cc2cn1 [compound 69]	100 to 500 nM
CNc1cc2ncc(-c3cc(NC(=O)c4ccnc(C(C)(C)F)c4)c(F)cc3C)cc2cn1 [compound 222]	20 to 100 nM
CCC(OC)c1ccnc(C(=O)Nc2cnc(C)c(-c3cnc4cc(NC)ncc4c3)c2)c1 (centres unmarked) [compound 260]	20 to 100 nM
CNc1cc2ncc(-c3cc(NC(=O)c4n[nH]c5c4C[C@H](C)O[C@@H]5C)ccc3C)cc2cn1 [compound 264]	20 to 100 nM
CNc1cc2ncc(-c3cc(NC(=O)c4cnc5n4CCCC5C)ccc3C)cc2cn1 (centres unmarked) [compound 214]	20 to 100 nM
CNc1cc2ncc(-c3cc(NC(=O)c4cccc5c4CCC5O)cnc3C)cc2cn1 (centres unmarked) [compound 219]	> 500 nM
CNCC(F)(F)c1cccc(C(=O)Nc2cnc(C)c(-c3cnc4cc(NC)ncc4c3)c2)n1 [compound 250]	> 500 nM
CNc1ncc2cc(-c3cc(NC(=O)c4ccnc(C(C)(C)C#N)c4)cnc3C)cnc2c1Cl [compound 270]	> 500 nM

SMILES	IC50
CNc1cc2ncc(-c3cc(NC(=O)c4ccnc(C5CC(F)(F)C5)c4)cnc3C)cc2cn1 [compound 34]	20 to 100 nM
CNc1cc2ncc(-c3cc(NC(=O)c4cc(C(C)(C)C#N)ccn4)cc(F)c3F)cc2cn1 [compound 39]	20 to 100 nM
CNc1cc2ncc(-c3cc(NC(=O)c4ccccc4NC(C)C(F)F)cnc3C)cc2cn1 (centres unmarked) [compound 226]	20 to 100 nM
CNc1cc2ncc(-c3cc(NC(=O)c4cnc5n4CC(C)CC5)ccc3C)cc2cn1 (centres unmarked) [compound 204]	< 20 nM
CNc1cc2ncc(-c3cc(NC(=O)c4ccnc(C(F)F)c4)cnc3C)cc2cn1 [compound 28]	100 to 500 nM
CNc1cc2ncc(-c3cc(NC(=O)c4cnc5n4C[C@@H](C)CC5)cnc3C)cc2cn1 [compound 258]	20 to 100 nM
CCNc1cc2ncc(-c3cc(NC(=O)c4ccnc(C5(F)CC5)c4)ccc3C)cc2cn1 [compound 153]	20 to 100 nM
CNc1cc2c(C#N)cc(-c3cc(NC(=O)c4ccnc(C(F)(F)F)c4)ccc3C)cc2cn1 [compound 273]	100 to 500 nM
CNc1cc2ncc(-c3cc(NC(=O)c4n[nH]c5c4C[C@H]4C[C@@H]54)cnc3C)cc2cn1 [compound 253]	20 to 100 nM
CCNc1cc2ncc(-c3cc(NC(=O)c4cc(C(C)(C)C#N)ccn4)cnc3C)cc2cn1 [compound 175]	20 to 100 nM
CNc1cc2ncc(-c3cc(NC(=O)c4ccnc(C(F)(F)F)c4)cnc3C)cc2cn1 [compound 27]	< 20 nM
CNc1cc2ncc(-c3cc(C(=O)Nc4cc(C(C)(C)C#N)ccn4)cnn3)cc2cn1 [compound 213]	> 500 nM
CNc1ncc2cc(-c3cc(NC(=O)c4ccnc(C(C)(C)C)c4)cnc3C)cnc2n1 [compound 58]	20 to 100 nM
CNc1cc2ncc(-c3cc(NC(=O)c4cnc5n4C[C@H](C)CC5)ccc3C)cc2cn1 [compound 230]	20 to 100 nM
CNc1cc2ncc(-c3cc(NC(=O)N4CC[C@@H](CC(F)(F)F)C4)ccc3C)cc2cn1 [compound 267]	< 20 nM
CNc1cc2ncc(-c3cc(NC(=O)c4cccc5c4OC(C)C5)cnc3C)cc2cn1 (centres unmarked) [compound 239]	> 500 nM
CNc1cc2ncc(-c3cc(NC(=O)c4noc5c4C[C@H](C)CC5)ccc3C)cc2cn1 [compound 237]	20 to 100 nM
CNc1cc2ncc(-c3cc(NC(=O)c4cc(C(C)(C)C#N)ccn4)c(F)cc3C)cc2cn1 [compound 42]	20 to 100 nM
Cc1ccc(NC(=O)c2cc(C(C)(C)C#N)ccn2)cc1-c1ccc2c3c(ncc2c1)NC(=O)C3 [compound 275]	20 to 100 nM

system: A375-Luc melanoma cells; assay: Combination with binimetinib in mice with A375-Luc melanoma (BRAF V600E); type: in vivo, BALB/c nude mice; settings: 35 days, oral gavage; monotherapy or combination
Protocol: (§1) Anti-tumor activity of a compound of the present disclosure in combination with binimetinib was also investigated in mice with melanoma cell line with BRAF V600E mutation. BALB/c nude mice implanted with A375-Luc melanoma cells were randomized to control or treatment group when the overall average tumor mean volume was 224 mm^3. Mice were administered twice daily approximately 12 hours apart with vehicle, twice daily approximately 12 hours apart with binimetinib, and once daily with the compound of the present disclosure, or the combination for 35 days by oral gavage. […] For representative results of the study, see FIG. 3.

SMILES	body weight loss
Cn1cnc2c(F)c(Nc3ccc(Br)cc3F)c(C(=O)NOCCO)cc21 [binimetinib]	No significant body weight loss

system: KRAS G12D patient-derived NSCLC tumor; assay: Combination with binimetinib in mice with KRAS G12D NSCLC PDX model; type: in vivo, Nu/Nu mice; settings: 50 days, oral gavage; monotherapy or combination
Protocol: as §1, with “was” for “was also”, “with KRAS G12D NSCLC patient-derived xenograft (PDX) model. Nu/Nu” for “with melanoma cell line with BRAF V600E mutation. BALB/c nude”, “with KRAS G12D patient-derived NSCLC tumor” for “with A375-Luc melanoma cells”, “was 172” for “was 224”, “for 50” for “for 35”, “FIG. 2.” for “FIG. 3.”

SMILES	body weight loss
Cn1cnc2c(F)c(Nc3ccc(Br)cc3F)c(C(=O)NOCCO)cc21 [binimetinib]	No significant body weight loss
